Data set [1] is described as follows: Half life in simulated intestinal fluid at 20 uM by LC-MS/MS analysis. The data set is classed as ADME.
Data set [2] concerns the target T1, Interleukin-23 receptor (Homo sapiens, UniProt Q5VWK5).
T1 sequence (Q5VWK5 whole entry): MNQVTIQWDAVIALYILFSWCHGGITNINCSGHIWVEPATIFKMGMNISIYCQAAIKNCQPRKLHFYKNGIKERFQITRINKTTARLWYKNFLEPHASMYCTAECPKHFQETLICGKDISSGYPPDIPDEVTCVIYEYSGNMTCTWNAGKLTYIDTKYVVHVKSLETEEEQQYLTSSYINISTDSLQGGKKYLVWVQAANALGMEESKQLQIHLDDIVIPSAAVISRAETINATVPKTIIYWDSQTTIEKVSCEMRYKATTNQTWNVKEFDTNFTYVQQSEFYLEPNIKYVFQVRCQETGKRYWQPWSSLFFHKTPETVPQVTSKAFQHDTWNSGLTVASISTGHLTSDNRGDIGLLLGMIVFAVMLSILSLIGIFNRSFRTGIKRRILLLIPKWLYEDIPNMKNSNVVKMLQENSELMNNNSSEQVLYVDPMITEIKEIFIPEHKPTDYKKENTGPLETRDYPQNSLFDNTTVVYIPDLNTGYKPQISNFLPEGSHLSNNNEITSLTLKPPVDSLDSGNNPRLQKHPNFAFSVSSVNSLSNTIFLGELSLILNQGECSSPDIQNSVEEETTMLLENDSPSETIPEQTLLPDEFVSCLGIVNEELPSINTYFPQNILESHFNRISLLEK
Kind of data set: Binding affinity to human recombinant interleukin-23 receptor by SPR assay.

Data set [3] is described as follows: AUC in rat plasma at 20 mg/kg, po. Type of data set: ADME, organism-based.
The species entered for data set [4] is Homo sapiens. Kind of data set: Binding affinity to human FC-tagged human recombinant interleukin-12 receptor beta1/human FC-tagged human interleukin-23 receptor assessed as association constant by SPR assay.
Data set [5] can be described thus: Drug recovery in rat feces at 20 mg/kg, po. Particulars: read-out: Drug recovery. The data set is classed as ADME, organism-based.
Data set [6] can be described thus: AUC in rat small intestinal mucosa at 20 mg/kg, po. The data set is classed as ADME, organism-based, Mucosa of small intestine. As to conditions: in vivo.
In data set [7] the target is T1, Interleukin-23 receptor. Kind of data set: Inhibition of interleukin-23 binding to human interleukin-23 receptor incubated for 2 hrs by competitive binding ELISA.
The nature of data set [8]: Binding affinity to human FC-tagged human recombinant interleukin-12 receptor beta1/human FC-tagged human interleukin-23 receptor by SPR assay.
A short description of data set [9]: Ratio of IC50 for inhibition of interleukin-23 receptor in rat splenocytes assessed as reduction in IL23-stimulated IL-17A production incubated for 3 hrs by ELISA to plasma concentration in Sprague-Dawley rat model of TNBS-induced colitis.
Data set [10] relates to Rattus norvegicus. Kind of data set: Anti-colitis activity in Sprague-Dawley rat model of TNBS-induced colitis assessed as reduction in inflammation at 160 mg/kg/day, po starting 24 hrs before TNBS injection. Type of data set: functional, organism-based.
Data set [11] is described as follows: Inhibition of interleukin-23 receptor in rat splenocytes assessed as reduction in IL23-stimulated IL-17A production incubated for 3 hrs by ELISA. Type of data set: cell-based.
Data set [12] concerns Rattus norvegicus. The data set is described as follows: Anti-colitis activity in Sprague-Dawley rat model of TNBS-induced colitis assessed as induction of healing at necrosis sites in colon at 20 mg/kg, po dosed 3 times per day for 8 days starting 24 hrs before TNBS injection by H and E staining based histological assay. Type of data set: functional, organism-based.
Data set [13] concerns the target T2, Interleukin-12 receptor subunit beta-1 (Homo sapiens, UniProt P42701). Kind of data set: Binding affinity to human recombinant interleukin-12 receptor beta1 by SPR assay.
The target of data set [14] is T3, Interleukin-23 receptor (Homo sapiens) (UniProt Q5VWK5).
T3 sequence (whole entry): T1 sequence (Q5VWK5 whole entry)
Kind of data set: Binding affinity to human FC-tagged human interleukin-23 receptor assessed as association constant by SPR assay.

A short description of data set [15]: Inhibition of interleukin-23 binding to cynomolgus monkey interleukin-23 receptor incubated for 2 hrs by competitive binding ELISA. Set-up: species or system Macaca fascicularis.
In data set [16] the test system is Rattus norvegicus. The data set is described as follows: Anti-colitis activity in Sprague-Dawley rat model of TNBS-induced colitis assessed as reduction in colon wall thickness at 160 mg/kg/day, po starting 24 hrs before TNBS injection. The data set is classed as functional, organism-based.
Data set [17] in a line: Inhibition of interleukin-23 binding to rat interleukin-23 receptor incubated for 2 hrs by competitive binding ELISA.
Data set [18] relates to PBMC. Kind of data set: Inhibition of IL12-stimulated IFNgamma production in PHA-activated human PBMC by ELISA. Type of data set: functional, cell-based.
Data set [19] in a line: Inhibition of interleukin-6 binding to human interleukin-6 receptor incubated for 2 hrs by competitive binding ELISA.
A short description of data set [20]: Ratio of IC50 for inhibition of interleukin-23 binding to rat interleukin-23 receptor incubated for 2 hrs by competitive binding ELISA to plasma concentration in Sprague-Dawley rat model of TNBS-induced colitis.
A short description of data set [21]: Half life in simulated gastric fluid at 20 uM by LC-MS/MS analysis. Type of data set: ADME.
The subject of data set [22] is Rattus norvegicus. The data set is described as follows: Anti-colitis activity in Sprague-Dawley rat model of TNBS-induced colitis assessed as reduction in inflammation at 20 mg/kg, po dosed 3 times per day for 8 days starting 24 hrs before TNBS injection. Type of data set: functional, organism-based.
In data set [23] the target is T2, Interleukin-12 receptor subunit beta-1. The data set is described as follows: Binding affinity to human FC-tagged human recombinant interleukin-12 receptor beta1 up to […] by SPR assay.
Data set [24] has as its system Rattus norvegicus. The data set is described as follows: Anti-colitis activity in Sprague-Dawley rat model of TNBS-induced colitis assessed as improvement in gross pathology scores at 20 mg/kg, po dosed 3 times per day for 8 days starting 24 hrs before TNBS injection. Type of data set: functional, organism-based.
In data set [25] the target is T1, Interleukin-23 receptor. The data set is described as follows: Inhibition of interleukin-23 receptor in human DB cells assessed as reduction in IL-23-stimulated STAT3 phosphorylation incubated for 30 mins by HTRF assay. Type of data set: cell-based.
The test system of data set [26] is Rattus norvegicus. Kind of data set: Anti-colitis activity in Sprague-Dawley rat model of TNBS-induced colitis assessed as reduction in mucosal necrosis at 160 mg/kg/day, po starting 24 hrs before TNBS injection. The data set is classed as functional, organism-based.
Data set [27] is described as follows: Half life in human intestinal fluid at 20 uM by LC-MS/MS analysis. Type of data set: ADME.
For data set [28], the system named is Rattus norvegicus. Kind of data set: Anti-colitis activity in Sprague-Dawley rat model of TNBS-induced colitis assessed as reduction in localized lesions in mucosa and sub-mucosal regions at 20 mg/kg, po dosed 3 times per day for 8 days starting 24 hrs before TNBS injection by H and E staining based histological assay. Type of data set: functional, organism-based.

Data set [29] can be described thus: Half life in DTT at 50 uM up up to 120 mins by reverse phase HPLC and UV detection based assay. Type of data set: physicochemical.
The target in data set [30] is T1, Interleukin-23 receptor. The data set is described as follows: Binding affinity to human FC-tagged human interleukin-23 receptor by SPR assay.
A short description of data set [31]: Binding affinity to human FC-tagged human recombinant interleukin-12 receptor beta1/human FC-tagged human interleukin-23 receptor assessed as dissociation rate constant by SPR assay.
The subject of data set [32] is Rattus norvegicus. The data set is described as follows: Anti-colitis activity in Sprague-Dawley rat model of TNBS-induced colitis assessed as reduction in colon weight/colon length ratio at 20 mg/kg, po dosed 3 times per day for 8 days starting 24 hrs before TNBS injection. Type of data set: functional, organism-based.
Data set [33] deals with Rattus norvegicus. Kind of data set: Anti-colitis activity in Sprague-Dawley rat model of TNBS-induced colitis assessed as improvement in histological scores at 160 mg/kg/day, po starting 24 hrs before TNBS injection by H and E staining based histological assay. Type of data set: functional, organism-based.
Data set [34] concerns the target T1, Interleukin-23 receptor. Kind of data set: Inhibition of interleukin-23 receptor in human natural killer cells assessed as reduction in IL23/IL18-induced IFNgamma production incubated for 20 to 24 hrs by ELISA. Type of data set: cell-based.
Data set [35] addresses T1, Interleukin-23 receptor. The data set is described as follows: Binding affinity to human FC-tagged human interleukin-23 receptor assessed as dissociation rate constant by SPR assay.
Data set [36] can be described thus: AUC in rat colon mucosa at 20 mg/kg, po. The data set is classed as ADME, organism-based, Colonic mucosa. Particulars: in vivo.
In data set [37] the test system is Rattus norvegicus. The data set is described as follows: Anti-colitis activity in Sprague-Dawley rat model of DSS-induced colitis assessed as improvement in stool consistency scores level at 30 mg/kg, ip dosed 3 times per day. Type of data set: functional, organism-based.
Data set [38] relates to Rattus norvegicus. Kind of data set: Anti-colitis activity in Sprague-Dawley rat model of DSS-induced colitis assessed as improvement in hematocrit scores level at 30 mg/kg, ip dosed 3 times per day. The data set is classed as functional, organism-based.
For data set [39], the system named is PBMC. Kind of data set: Inhibition of IL12-stimulated IFNgamma production in PHA-activated human PBMC at 0.0001 to 100 uM by ELISA. Type of data set: functional, cell-based.
The subject of data set [40] is Rattus norvegicus. The data set is described as follows: Anti-colitis activity in Sprague-Dawley rat model of DSS-induced colitis assessed as reduction in colon macroscopic scores at 30 mg/kg, ip dosed 3 times per day. Type of data set: functional, organism-based.
Data set [41] deals with Rattus norvegicus. The data set is described as follows: Anti-colitis activity in Sprague-Dawley rat model of DSS-induced colitis assessed as colon weight/colon length ratio at 30 mg/kg, po dosed 3 times per day (124.36 +/- 17.11 g/cm). Type of data set: functional.
Data set [42] has as its system Rattus norvegicus. Kind of data set: Anti-colitis activity in Sprague-Dawley rat model of DSS-induced colitis assessed as improvement in stool consistency scores level at 30 mg/kg, po dosed 3 times per day. Type of data set: functional, organism-based.
Data set [43] relates to Rattus norvegicus. The data set is described as follows: Anti-colitis activity in Sprague-Dawley rat model of DSS-induced colitis assessed as reduction in colon macroscopic scores at 30 mg/kg, po dosed 3 times per day. Type of data set: functional, organism-based.
Data set [44] deals with Rattus norvegicus. The data set is described as follows: Anti-colitis activity in Sprague-Dawley rat model of DSS-induced colitis assessed as improvement in hematocrit scores level at 30 mg/kg, po dosed 3 times per day. Type of data set: functional, organism-based.
Data set [45] has as its system Rattus norvegicus. Kind of data set: Anti-colitis activity in Sprague-Dawley rat model of DSS-induced colitis assessed as reduction in disease activity index at 30 mg/kg, po dosed 3 times per day. The data set is classed as functional.
Data set [46] has as its system Rattus norvegicus. Kind of data set: Anti-colitis activity in Sprague-Dawley rat model of DSS-induced colitis assessed as change in body weight at 30 mg/kg, po dosed 3 times per day (-6.39 +/- 1.11%). Type of data set: functional.

Molecules are shown by their SMILES. pIC50, pKd: −log10 of the molar value. Activity calls are given as the source filed them. The rule behind the calls is not given here.

Regarding `CC(=O)N[C@H]1CCSC[C@@H](C(=O)N[C@@H](Cc2ccc(OCCN)cc2)C(=O)N[C@@H](Cc2c[nH]c3ccccc23)C(=O)N[C@@](C)(CCCCN)C(=O)N[C@@H](CCC(=O)O)C(=O)N[C@@H](CC(N)=O)C(=O)NCC(N)=O)NC(=O)[C@H](CCC(N)=O)NC(=O)[C@H](Cc2c[nH]c3ccccc23)NC(=O)[C@H]([C@@H](C)O)NC(=O)[C@H](CCC(N)=O)NC1=O`, the half-life at 20 µM in data set [1] was 6 to 24 h; in data set [21], 2 to 24 h; in data set [27], above 24 h. The pKd in data set [2] was 8.62; in data set [8], 8.59; in data set [30] it was 8.62. Moreover, the AUC in data set [3] is 300 ng·h/mL; in data set [6], 355 µg·h/g; in data set [36], 77 µg·h/g. The Ka in data set [4] came out at 1.59 ×10⁷ /M/s; in [14] it was 1.37 ×10⁷ /M/s. The dose excreted in data set [5] came to 40%. The negative logarithm of the IC50 (pIC50) in [7] is 7.60 to 8.00; in data set [11], 6.89; in [15], 8.15; in data set [17] it was 7.60 to 8.00; in data set [18], below 4.00; in data set [19], below 4.00. In addition, the negative-log IC50 (pIC50) was above 8.00 in [25] and 7.57 to 7.60 in data set [34]. The Ratio in [9] and in data set [20] was below 2 throughout. Further, the result in data set [10], in data set [12], in data set [16], in data set [22], in [24] and in [26] was Active. In addition, the outcome in data set [28], in data set [32] and in [33] was Active. The Kd result in [13] was “Not Active”; in [31], 0.041 s⁻¹; in data set [35] it was 0.033 s⁻¹. Also, the result in data set [23] was inactive. The half-life at 50 µM in data set [29] is above 2 h.

As to `COc1ccc(C[C@H](NC(=O)[C@H]2NC(=O)[C@H](CCC(N)=O)NC(=O)[C@H](Cc3c[nH]c4ccccc34)NC(=O)[C@H]([C@@H](C)O)NC(=O)[C@H](CCC(N)=O)NC(=O)[C@@H](NC(C)=O)C(C)(C)SSC2(C)C)C(=O)N[C@@H](Cc2ccc3ccccc3c2)C(=O)N[C@@](C)(CCCCN)C(=O)N[C@@H](CCC(=O)O)C(=O)N[C@@H](CC(N)=O)C(=O)NCC(N)=O)cc1`, the result in [37], in [38], in data set [40], in data set [42], in data set [43] and in data set [44] was Active. The inhibition entry in data set [39] was “inactive”. Moreover, the Ratio in data set [41] is recorded as 97.36 g/cm. For the same compound, the Activity_index in [45] amounted to 0.61. In addition, the Activity in [46] was 0.13%.
